Measured values published in BigSolDB 2.1.

O=[N+]([O-])c1cc([N+](=O)[O-])c(O)c(Cl)c1O
Settings | solubility (mole fraction)
in acetic acid, 299.35 K | 0.00649
in acetic acid, 305.55 K | 0.00872
in acetic acid, 311.45 K | 0.0112
in acetic acid, 315.05 K | 0.013
in acetic acid, 318.75 K | 0.0149
in acetic acid, 321.85 K | 0.0167
in acetic acid, 323.95 K | 0.0179
in acetic acid, 327.65 K | 0.0202
in acetic acid, 334.65 K | 0.0248
in acetic acid, 336.45 K | 0.026
in acetic acid, 340.45 K | 0.0289
in acetic acid, 343.15 K | 0.0308
in ethanol, 299.35 K | 0.00297
in ethanol, 303.15 K | 0.00355
in ethanol, 307.35 K | 0.00428
in ethanol, 310.75 K | 0.00493
in ethanol, 314.25 K | 0.00568
in ethanol, 317.65 K | 0.00648
in ethanol, 320.15 K | 0.00711
in ethanol, 326.35 K | 0.00882
in ethanol, 329.85 K | 0.00989
in ethanol, 332.65 K | 0.0108
in ethanol, 335.45 K | 0.0118
in ethanol, 339.15 K | 0.0131
in ethanol, 343.75 K | 0.0148
in ethyl acetate, 298.75 K | 0.0449
in ethyl acetate, 302.65 K | 0.0474
in ethyl acetate, 306.25 K | 0.0498
in ethyl acetate, 309.95 K | 0.0525
in ethyl acetate, 313.85 K | 0.0555
in ethyl acetate, 318.15 K | 0.0589
in ethyl acetate, 323.15 K | 0.0633
in ethyl acetate, 327.25 K | 0.067
in ethyl acetate, 331.85 K | 0.0716
in ethyl acetate, 333.35 K | 0.0731
in ethyl acetate, 337.15 K | 0.0772
in ethyl acetate, 342.55 K | 0.0834
in ethyl acetate, 344.95 K | 0.0863
in methanol, 299.75 K | 0.00172
in methanol, 305.95 K | 0.00239
in methanol, 308.75 K | 0.00277
in methanol, 311.25 K | 0.00316
in methanol, 313.65 K | 0.00359
in methanol, 315.95 K | 0.00406
in methanol, 318.15 K | 0.00456
in methanol, 320.75 K | 0.00524
in methanol, 323.35 K | 0.006
in methanol, 327.05 K | 0.00731
in methanol, 330.15 K | 0.0086
in water, 298.85 K | 3.49e-05
in water, 301.15 K | 3.65e-05
in water, 303.65 K | 4.23e-05
in water, 306.35 K | 4.59e-05
in water, 309.05 K | 4.86e-05
in water, 311.35 K | 5.44e-05
in water, 313.35 K | 5.67e-05
in water, 315.75 K | 6.29e-05
in water, 318.15 K | 6.8e-05
in water, 320.65 K | 7.62e-05
in water, 323.15 K | 8.17e-05
in water, 325.85 K | 9.12e-05
in water, 327.45 K | 9.79e-05
in water, 330.15 K | 0.000106
in water, 332.25 K | 0.000113
in water, 336.35 K | 0.00013
in water, 339.55 K | 0.000142
in water, 341.95 K | 0.000152
